What was measured:
[1] = tested on: Hepatotoxicity;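 for HepSE bilirubinemia: bilirubinemia hepatic side effect score drawn from the DILIps training data, a prediction system for drug-induced liver injury; call rule not given here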;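 for HepSE cirrhosis: cirrhosis hepatic side effect score taken from the DILIps (drug-induced liver injury prediction) training set; call rule not given here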;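 for HepSE hepatomegaly: hepatic side effect score for hepatomegaly, taken from the training set of the DILIps drug-induced liver injury prediction system; call rule not given here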;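 for HepSE jaundice: Jaundice-related hepatic side-effect score drawn from the training data of the DILIps (drug-induced liver injury prediction system); call rule not given here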;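 for HepSE liver fatty: hepatic side effect score for fatty liver, taken from the DILIps training set for predicting drug-induced liver injury; call rule not given here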;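 for HepSE liver function tests abnormal: hepatic side effect score taken from the DILIps (drug-induced liver injury prediction system) training data, here covering abnormal liver function test findings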
[2] = tested on: Hepatotoxicity; remark: listed apart in the source;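 for HepSE bilirubinemia: bilirubinemia hepatic side effect score drawn from the DILIps training data, a prediction system for drug-induced liver injury; call rule not given here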;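 for HepSE cirrhosis: cirrhosis hepatic side effect score taken from the DILIps (drug-induced liver injury prediction) training set; call rule not given here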;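 for HepSE hepatomegaly: hepatic side effect score for hepatomegaly, taken from the training set of the DILIps drug-induced liver injury prediction system; call rule not given here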;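 for HepSE jaundice: Jaundice-related hepatic side-effect score drawn from the training data of the DILIps (drug-induced liver injury prediction system); call rule not given here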;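 for HepSE liver fatty: hepatic side effect score for fatty liver, taken from the DILIps training set for predicting drug-induced liver injury; call rule not given here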;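 for HepSE liver function tests abnormal: hepatic side effect score taken from the DILIps (drug-induced liver injury prediction system) training data, here covering abnormal liver function test findings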
[3] = tested on: Hepatotoxicity; remark: listed apart in the source;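 for HepSE bilirubinemia: bilirubinemia hepatic side effect score drawn from the DILIps training data, a prediction system for drug-induced liver injury; call rule not given here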;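 for HepSE cirrhosis: cirrhosis hepatic side effect score taken from the DILIps (drug-induced liver injury prediction) training set; call rule not given here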;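 for HepSE hepatomegaly: hepatic side effect score for hepatomegaly, taken from the training set of the DILIps drug-induced liver injury prediction system; call rule not given here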;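 for HepSE jaundice: Jaundice-related hepatic side-effect score drawn from the training data of the DILIps (drug-induced liver injury prediction system); call rule not given here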;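 for HepSE liver fatty: hepatic side effect score for fatty liver, taken from the DILIps training set for predicting drug-induced liver injury; call rule not given here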;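 for HepSE liver function tests abnormal: hepatic side effect score taken from the DILIps (drug-induced liver injury prediction system) training data, here covering abnormal liver function test findings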
[4] = tested on: Hepatotoxicity; remark: listed apart in the source;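 for HepSE bilirubinemia: bilirubinemia hepatic side effect score drawn from the DILIps training data, a prediction system for drug-induced liver injury; call rule not given here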;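 for HepSE cirrhosis: cirrhosis hepatic side effect score taken from the DILIps (drug-induced liver injury prediction) training set; call rule not given here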;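 for HepSE jaundice: Jaundice-related hepatic side-effect score drawn from the training data of the DILIps (drug-induced liver injury prediction system); call rule not given here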;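 for HepSE liver fatty: hepatic side effect score for fatty liver, taken from the DILIps training set for predicting drug-induced liver injury; call rule not given here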;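 for HepSE liver function tests abnormal: hepatic side effect score taken from the DILIps (drug-induced liver injury prediction system) training data, here covering abnormal liver function test findings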
[5] = tested on: Hepatotoxicity; remark: listed apart in the source
[6] = tested on: Hepatotoxicity; remark: listed apart in the source
[7] = tested on: Hepatotoxicity; remark: listed apart in the source
[8] = tested on: Hepatotoxicity; remark: listed apart in the source
[9] = tested on: Hepatotoxicity; remark: listed apart in the source
[10] = tested on: Hepatotoxicity; remark: listed apart in the source
[11] = tested on: Hepatotoxicity; remark: listed apart in the source
[12] = tested on: Hepatotoxicity; remark: listed apart in the source
[13] = tested on: Hepatotoxicity; remark: listed apart in the source
[14] = tested on: Hepatotoxicity; remark: listed apart in the source

Row | Compound | HepSE_liver fatty [1] | HepSE_cholelithiasis [2] | HepSE_bilirubinemia [3] | HepSE_jaundice [4] | HepSE_liver function tests abnormal [5] | HepSE_hepatic necrosis [6] | HepSE_hepatitis [7] | HepSE_cirrhosis [8] | HepSE_hepatomegaly [9] | HepSE_Combined Scores [10] | HepSE_hepatic failure [11] | HepSE_elevated liver function tests [12] | HepSE_cholecystitis [13] | HepSE_liver disease [14] | further results
1 | CC(=O)O[C@H]1C[C@@H]2CC[C@@H]3[C@H](CC[C@@]4(C)[C@H]3C[C@H]([N+]3(C)CCCCC3)[C@@H]4OC(C)=O)[C@@]2(C)C[C@@H]1[N+]1(C)CCCCC1 [PANCURONIUM] | – | – | – | – | – | – | – | – | – | – | – | – | – | – | HepSE_liver fatty ([1]; Liver): 0; HepSE_cholelithiasis ([2]; Liver): 0; HepSE_bilirubinemia ([3]; Liver): 0; HepSE_jaundice ([4]; Liver): 0; HepSE_liver function tests abnormal ([5]; Liver): 0; HepSE_hepatic necrosis ([6]; Liver): 0; HepSE_hepatitis ([7]; Liver): 0; HepSE_cirrhosis ([8]; Liver): 0; HepSE_hepatomegaly ([9]; Liver): 0; HepSE_Combined Scores ([10]; Liver): 0; HepSE_hepatic failure ([11]; Liver): 0; HepSE_elevated liver function tests ([12]; Liver): 0; HepSE_cholecystitis ([13]; Liver): 0; HepSE_liver disease ([14]; Liver): 0
2 | COc1ccnc(C[S+]([O-])c2nc3ccc(OC(F)F)cc3[nH]2)c1OC (configuration not stated) [PANTOPRAZOLE] | 0 | 1 | 1 | 1 | 1 | 0 | 1 | 0 | 0 | 7 | 1 | 0 | 1 | 0 | –
3 | C[C@H](/C=C/[C@H](C)C(C)(C)O)[C@H]1CC[C@H]2/C(=C/C=C3C[C@@H](O)C[C@H](O)C3)CCC[C@]12C [PARICALCITOL] | 0 | 0 | 0 | 0 | 0 | 0 | 0 | 0 | 0 | 0 | 0 | 0 | 0 | 0 | –
4 | NC[C@@H]1O[C@H](O[C@H]2[C@@H](O)[C@H](O[C@@H]3[C@@H](O)[C@H](N)C[C@H](N)[C@H]3O[C@H]3O[C@H](CO)[C@@H](O)[C@H](O)[C@H]3N)O[C@@H]2CO)[C@H](N)[C@@H](O)[C@@H]1O [PAROMOMYCIN] | 0 | 0 | 0 | 0 | 0 | 0 | 0 | 0 | 0 | 0 | 0 | 0 | 0 | 0 | –
5 | Fc1ccc([C@@H]2CCNC[C@H]2COc2ccc3c(c2)OCO3)cc1 [PAROXETINE] | 0 | 1 | 1 | 1 | 1 | 1 | 1 | 0 | 0 | 8 | 1 | 1 | 0 | 0 | –
6 | Nc1nc2[nH]cc(CCc3ccc(C(=O)N[C@@H](CCC(=O)O)C(=O)O)cc3)c2c(=O)[nH]1 [PEMETREXED] | 0 | 0 | 0 | 0 | 0 | 0 | 0 | 0 | 0 | 0 | 0 | 0 | 0 | 0 | –
7 | NC1=NC(=O)C(c2ccccc2)O1 (configuration not stated) [PEMOLINE] | 0 | 0 | 0 | 1 | 0 | 0 | 1 | 0 | 0 | 2 | 0 | 0 | 0 | 0 | –
8 | CC(C)(C)NC[C@H](O)COc1ccccc1C1CCCC1 [PENBUTOLOL] | 0 | 0 | 0 | 0 | 0 | 0 | 0 | 0 | 0 | 0 | 0 | 0 | 0 | 0 | –

— ChEMBL document CHEMBL1909294, “Translating clinical findings into knowledge in drug safety evaluation--drug induced liver injury prediction system (DILIps)” (PLoS Comput Biol, 2011)
